The results in this text go back to patent publication EP4813991A1 (iLeadBMS Co., Ltd., priority 2023, dated 2025).

One assay relates to SNU-1. Put plainly: Gastric cancer cell proliferation inhibitory activity (CellTiter Glo), SNU-1. To be noted: 72 hours, relative IC50. Format: cell-based. How it is done:
(§1) Experiments were performed using four types of gastric cancer cell lines (AGS, SNU-1, KATO-III, and MKN45) to measure the cell proliferation inhibitory ability of each Example compound. For AGS cells, 90 µL of cell suspension was dispensed into a 96-well plate using F-12K (Gibco) medium containing 10 % FBS, followed by incubation in a cell incubator at 37 °C and 5 % CO2. For SNU-1 and MKN45 cells, 90 µL of cell suspension was dispensed into a 96-well plate using RPMI1640 (Gibco) medium containing 10 % FBS, followed by incubation in a cell incubator at 37 °C and 5 % CO2. For KATO-III cells, 90 uL of cell suspension was dispensed into a 96-well plate using IMDM (Gibco) medium containing 10 % FBS, followed by incubation in a cell incubator at 37 °C and 5 % CO2. The next day, each Example compound dissolved and diluted in DMSO across 9 concentration ranges and a DMSO control group were added at 10 µL to each 96-well plate and treated for 72 hours. After completion of the compound treatment, 100 µL of CellTiter Glo (Promega) reagent was added to each well of the 96-well plate, followed by shaking for 10 minutes and standing at room temperature for 10 minutes. Luminescence signals were measured after inserting the 96-well plate into an Envision plate reader (PerkinElmer). Relative IC50 values were calculated by fitting a dose-response curve using XLfit (IDBS Ltd) software.
(§2) The gastric cancer cell proliferation inhibitory activities of the Example compounds measured by the method described above were evaluated according to the following criteria, and the results are presented in Table 16.

Another assay relates to KATO-III cells. Put plainly: Gastric cancer cell proliferation inhibitory activity (CellTiter Glo), KATO-III. It counts as cell-based. To be noted: 72 hours, relative IC50. How it is done:
as §1, §2
Background: ATP-based viability assays read luminescence as a measure of living cells.

In another assay the test system is MKN45 cells. The assay is described as follows: Gastric cancer cell proliferation inhibitory activity (CellTiter Glo), MKN45. Format: cell-based. To be noted: 72 hours, relative IC50. How it is done: as §1, §2
In the next assay the test system is AGS cells. Put plainly: Gastric cancer cell proliferation inhibitory activity (CellTiter Glo), AGS. It counts as cell-based. To be noted: 72 hours, relative IC50. How it is done: as §1, §2
Another assay relates to MDA-MB-436 cells. The assay is described as follows: Breast cancer cell proliferation inhibitory activity, MDA-MB-436. Format: cell-based. Particulars: Homo sapiens, 72 hours, CellTiter Glo, relative IC50. How it is done: (§3) Experiments were conducted using three types of breast cancer cell lines to measure the cell proliferation inhibitory ability of each Example compound. For HCC70 cells, 100 µL of cell suspension was dispensed into a 96-well plate using RPMI1640 (Invitrogen) medium containing 10 % FBS, followed by incubation in a cell incubator at 37 °C and 5 % CO2. For BT-20 cells, 100 µL of cell suspension was dispensed into a 96-well plate using EMEM (Invitrogen) medium containing 10 % FBS, followed by incubation in a cell incubator at 37 °C and 5 % CO2. For MDA-MB-436 cells, 100 µL of cell suspension was dispensed into a 96-well plate using L-15 (Invitrogen) medium containing 10 % FBS, followed by incubation in a cell incubator at 37 °C and 0 % CO2. The next day, each Example compound dissolved and diluted in DMSO across 9 concentration ranges and a DMSO control group were treated on the cells for 72 hours. After completion of the compound treatment, 100 µL of CellTiter Glo (Promega) reagent was added to each well of the 96-wellplate, followed by shaking for 10 minutes and standing at room temperature for 10 minutes. After inserting the 96-well plate into an Envision plate reader (PerkinElmer), luminescence signals were measured. Relative IC50 values were calculated by fitting a dose-response curve using XL fit (IDBS Ltd) software.
(§4) The breast cancer cell proliferation inhibitory activities of the Example compounds measured by the method described above were evaluated according to the following criteria, and the results are presented in Table 15.

A further assay has as its system HCC70 cells. The assay is described as follows: Breast cancer cell proliferation inhibitory activity, HCC70. It counts as cell-based. Particulars: Homo sapiens, 72 hours, CellTiter Glo, relative IC50. How it is done:
as §3, §4

For the next assay, the system named is BT-20 cells. Put plainly: Breast cancer cell proliferation inhibitory activity, BT-20. It counts as cell-based. Particulars: Homo sapiens, 72 hours, CellTiter Glo, relative IC50. How it is done: as §3, §4
The target of a further assay is CDK13 (Homo sapiens, UniProt Q14004). Put plainly: CDK13 kinase inhibitory activity assay (33P-ATP filter binding). Particulars: kinase reaction 120 minutes, 33P-gamma-ATP; read-out: CDK13 IC50. Format: biochemical. The method in brief: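 Compound in 9 concentrations pre-incubated 20 min with kinase and substrate, then ^33P-γ-ATP added and reacted 120 min at room temperature. Phosphorylated substrate captured on filter, washed with 0.75 % phosphoric acid and counted; activity as % of DMSO control, IC50 fitted.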
Sequence of CDK13 (Q14004 whole entry, species assumed): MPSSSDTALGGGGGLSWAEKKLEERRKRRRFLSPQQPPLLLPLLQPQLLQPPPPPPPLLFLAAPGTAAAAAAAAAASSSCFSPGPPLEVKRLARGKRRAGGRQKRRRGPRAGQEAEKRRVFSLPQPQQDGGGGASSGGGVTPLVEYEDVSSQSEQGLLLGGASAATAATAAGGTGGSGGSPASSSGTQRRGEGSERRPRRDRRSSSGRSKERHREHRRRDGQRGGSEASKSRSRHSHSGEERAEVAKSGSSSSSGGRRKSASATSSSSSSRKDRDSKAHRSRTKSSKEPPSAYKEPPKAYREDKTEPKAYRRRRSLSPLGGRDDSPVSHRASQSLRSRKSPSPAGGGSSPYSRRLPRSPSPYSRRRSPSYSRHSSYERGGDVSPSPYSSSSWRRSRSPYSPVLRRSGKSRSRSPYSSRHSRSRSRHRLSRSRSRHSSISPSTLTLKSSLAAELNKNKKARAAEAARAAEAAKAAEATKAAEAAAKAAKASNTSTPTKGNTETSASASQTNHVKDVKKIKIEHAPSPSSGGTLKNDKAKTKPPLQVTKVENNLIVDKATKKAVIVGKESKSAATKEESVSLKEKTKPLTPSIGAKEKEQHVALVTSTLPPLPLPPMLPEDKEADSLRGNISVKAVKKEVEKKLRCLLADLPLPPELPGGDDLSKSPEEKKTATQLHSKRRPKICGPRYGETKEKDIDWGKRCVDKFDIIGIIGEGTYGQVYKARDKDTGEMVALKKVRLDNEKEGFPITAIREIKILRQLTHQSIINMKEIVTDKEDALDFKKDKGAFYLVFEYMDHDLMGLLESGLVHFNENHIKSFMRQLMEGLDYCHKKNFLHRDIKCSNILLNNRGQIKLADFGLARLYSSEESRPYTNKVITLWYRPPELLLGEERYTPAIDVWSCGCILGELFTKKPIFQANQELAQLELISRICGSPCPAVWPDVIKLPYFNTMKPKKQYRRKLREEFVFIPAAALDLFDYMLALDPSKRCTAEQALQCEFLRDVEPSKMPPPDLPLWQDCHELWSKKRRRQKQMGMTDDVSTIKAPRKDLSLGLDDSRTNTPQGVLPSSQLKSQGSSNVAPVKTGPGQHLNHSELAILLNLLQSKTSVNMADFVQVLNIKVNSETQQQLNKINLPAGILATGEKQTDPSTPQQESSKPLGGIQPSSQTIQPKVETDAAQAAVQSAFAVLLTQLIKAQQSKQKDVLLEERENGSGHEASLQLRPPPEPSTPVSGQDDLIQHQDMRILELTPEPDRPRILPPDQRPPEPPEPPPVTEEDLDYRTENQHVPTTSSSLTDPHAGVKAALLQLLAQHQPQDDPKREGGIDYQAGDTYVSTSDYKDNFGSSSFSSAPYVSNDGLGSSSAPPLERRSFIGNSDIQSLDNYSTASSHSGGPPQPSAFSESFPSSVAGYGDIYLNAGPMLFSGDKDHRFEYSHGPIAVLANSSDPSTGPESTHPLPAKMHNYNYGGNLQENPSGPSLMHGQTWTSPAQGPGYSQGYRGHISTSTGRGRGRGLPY
Sequence of CDK13 (O75909 whole entry partner, species assumed): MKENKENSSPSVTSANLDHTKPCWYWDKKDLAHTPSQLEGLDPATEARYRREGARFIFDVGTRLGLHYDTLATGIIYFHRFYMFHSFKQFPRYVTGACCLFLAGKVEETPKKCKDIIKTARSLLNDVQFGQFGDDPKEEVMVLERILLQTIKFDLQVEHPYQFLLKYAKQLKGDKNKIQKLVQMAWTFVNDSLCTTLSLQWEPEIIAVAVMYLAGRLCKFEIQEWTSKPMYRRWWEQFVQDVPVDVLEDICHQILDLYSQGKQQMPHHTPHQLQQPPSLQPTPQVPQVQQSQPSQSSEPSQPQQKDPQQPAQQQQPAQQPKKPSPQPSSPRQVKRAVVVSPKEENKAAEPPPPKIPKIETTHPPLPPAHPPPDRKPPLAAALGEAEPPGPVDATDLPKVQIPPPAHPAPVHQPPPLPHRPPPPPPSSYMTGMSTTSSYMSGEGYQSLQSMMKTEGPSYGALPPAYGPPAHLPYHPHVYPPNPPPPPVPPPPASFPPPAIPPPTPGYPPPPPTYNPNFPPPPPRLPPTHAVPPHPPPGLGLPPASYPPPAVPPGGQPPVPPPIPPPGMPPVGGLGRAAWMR

Assay [1] deals with MDA-MB-231 breast cancer cells. Put plainly: Proliferation inhibitory activity assay against MDA-MB-231 breast cancer cells. Format: cell-based. To be noted: Homo sapiens, 72 hours, CellTiter Glo, relative IC50. The procedure, abridged: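 Cells grown in L-15 with 10% FBS at 37 °C, 0% CO2, then exposed next day to compounds at 9 concentrations (DMSO vehicle) for 72 h. Viability read by CellTiter Glo luminescence; relative IC50 from dose-response curve fit.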

pIC50: −log10 of the molar value.

As a reminder, the pIC50 is the negative decadic logarithm of the IC50, by convention in mol/L. Take `N.N.[Cl][Pt][Cl]` [Cisplatin, reference compound]: the negative logarithm of the IC50 (pIC50) with SNU-1, in the assay with KATO-III cells, with MKN45 cells and in the assay on AGS cells was under 6.00 in each case.
Turning to `O=C(c1cc(Cc2n[nH]c(=O)c3ccccc23)ccc1F)N1CCN(C(=O)C2CC2)CC1` [Olaparib, reference compound], the negative-log IC50 (pIC50) in the assay with MDA-MB-436 cells, in the assay on HCC70 cells and with BT-20 cells was under 6.00 each time.
Take `CC(=O)c1c(C)c2cnc(Nc3ccc(N4CCNCC4)cn3)nc2n(C2CCCC2)c1=O` [Palbociclib, reference compound]: the pIC50 in the assay with HCC70 cells and with BT-20 cells was under 6.00 each time.
As to `Cn1cc(-n2cnc3c(NCc4nc5cc(Cl)c(Cl)cc5[nH]4)nc(N4CCOCC4)nc32)cn1` [SR-4835, reference compound], the pIC50 is 6.30 to 7.00 at CDK13; 6.30 to 7.30 in assay [1]; 6.00 to 7.30 in the assay on MDA-MB-436 cells; 6.00 to 7.30 in the assay on HCC70 cells; 6.00 to 7.30 with BT-20 cells.
